Tested on: 422866-222-R5-J1-PDC complex spheroids viability
Assay: Anticancer human tumor 422866-222-R5-J1-PDC patient-derived pancreatic adenocarcinoma cell line growth inhibition [RAS]
Details: for viability, T/C: stronger effect = lower value
Outline: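 Agents were tested in combination matrices in half-log decrements from a top concentration at or near clinical Cmax (10 microM if undetermined). Targets were multi-cell spheroids of tumour lines plus HUVEC and MSC stromal cells.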
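Note: spheroids exposed to compounds for 7 days.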
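Throughout, for viability, T/C: 100% = DMSO vehicle control viability.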

Question: CCc1c2c(nc3ccc(O)cc13)-c1cc3c(c(=O)n1C2)COC(=O)[C@]3(O)CC + C=CC(=O)N1CCN(c2nc(OCC3CCCN3C)nc3c(F)c(-c4nc(N)cc(C)c4C(F)(F)F)c(Cl)cc23)C(C)C1 was tested. Which IC50 (curve of first compound, second compound 0.00316 µM) did it give?
Answer: < 0.949 nM

Question: And the IC50 (curve of first compound, second compound 0.01 µM)?
Answer: < 0.949 nM

Question: And the IC50 (curve of first compound, second compound 0.0316 µM)?
Answer: < 0.949 nM

Question: And the IC50 (curve of first compound, second compound 0.1 µM)?
Answer: < 0.949 nM

Question: And the IC50 (curve of first compound, second compound 0.316 µM)?
Answer: < 0.949 nM

Question: And the IC50 (curve of first compound, second compound 1 µM)?
Answer: < 0.949 nM

Question: What about the viability, T/C (second compound 0.00316 µM, first compound 0.000949 µM) of the same compound?
Answer: 25.3%

Question: And the viability, T/C (second compound 0.00316 µM, first compound 0.003 µM)?
Answer: 21.1%

Question: What about the viability, T/C (second compound 0.00316 µM, first compound 0.00949 µM) of the same compound?
Answer: 15.8%

Question: What about the viability, T/C (second compound 0.00316 µM, first compound 0.03 µM) of the same compound?
Answer: 15.9%

Question: And the viability, T/C (second compound 0.00316 µM, first compound 0.0949 µM)?
Answer: 15.2%

Question: And the viability, T/C (second compound 0.00316 µM, first compound 0.3 µM)?
Answer: 11.3%

Question: And the viability, T/C (second compound 0.01 µM, first compound 0.000949 µM)?
Answer: 24.9%

Question: And the viability, T/C (second compound 0.01 µM, first compound 0.003 µM)?
Answer: 20.7%

Question: And the viability, T/C (second compound 0.01 µM, first compound 0.00949 µM)?
Answer: 18.1%

Question: What about the viability, T/C (second compound 0.01 µM, first compound 0.03 µM) of the same compound?
Answer: 18.3%

Question: What about the viability, T/C (second compound 0.01 µM, first compound 0.0949 µM) of the same compound?
Answer: 12.9%

Question: What about the viability, T/C (second compound 0.01 µM, first compound 0.3 µM) of the same compound?
Answer: 10.9%

Question: What about the viability, T/C (second compound 0.0316 µM, first compound 0.000949 µM) of the same compound?
Answer: 25.3%

Question: What about the viability, T/C (second compound 0.0316 µM, first compound 0.003 µM) of the same compound?
Answer: 18.3%

Question: What about the viability, T/C (second compound 0.0316 µM, first compound 0.00949 µM) of the same compound?
Answer: 16.8%

Question: And the viability, T/C (second compound 0.0316 µM, first compound 0.03 µM)?
Answer: 14.8%

Question: And the viability, T/C (second compound 0.0316 µM, first compound 0.0949 µM)?
Answer: 15.4%

Question: What about the viability, T/C (second compound 0.0316 µM, first compound 0.3 µM) of the same compound?
Answer: 15.6%

Question: And the viability, T/C (second compound 0.1 µM, first compound 0.000949 µM)?
Answer: 21.8%

Question: And the viability, T/C (second compound 0.1 µM, first compound 0.003 µM)?
Answer: 15.9%

Question: And the viability, T/C (second compound 0.1 µM, first compound 0.00949 µM)?
Answer: 15.4%

Question: What about the viability, T/C (second compound 0.1 µM, first compound 0.03 µM) of the same compound?
Answer: 16.2%

Question: And the viability, T/C (second compound 0.1 µM, first compound 0.0949 µM)?
Answer: 14.6%

Question: And the viability, T/C (second compound 0.1 µM, first compound 0.3 µM)?
Answer: 10.9%

Question: What about the viability, T/C (second compound 0.316 µM, first compound 0.000949 µM) of the same compound?
Answer: 19.1%

Question: What about the viability, T/C (second compound 0.316 µM, first compound 0.003 µM) of the same compound?
Answer: 17.5%

Question: What about the viability, T/C (second compound 0.316 µM, first compound 0.00949 µM) of the same compound?
Answer: 15.6%

Question: What about the viability, T/C (second compound 0.316 µM, first compound 0.03 µM) of the same compound?
Answer: 14.2%

Question: What about the viability, T/C (second compound 0.316 µM, first compound 0.0949 µM) of the same compound?
Answer: 12.8%

Question: And the viability, T/C (second compound 0.316 µM, first compound 0.3 µM)?
Answer: 12.3%

Question: And the viability, T/C (second compound 1 µM, first compound 0.000949 µM)?
Answer: 17%

Question: And the viability, T/C (second compound 1 µM, first compound 0.003 µM)?
Answer: 16%

Question: What about the viability, T/C (second compound 1 µM, first compound 0.00949 µM) of the same compound?
Answer: 17.1%

Question: What about the viability, T/C (second compound 1 µM, first compound 0.03 µM) of the same compound?
Answer: 14%

Question: And the viability, T/C (second compound 1 µM, first compound 0.0949 µM)?
Answer: 14.4%

Question: What about the viability, T/C (second compound 1 µM, first compound 0.3 µM) of the same compound?
Answer: 13.1%

Question: What does the source list for CCn1c(-c2cc(N3CCN(C)CC3)cnc2C(C)OC)c2c3cc(ccc31)-c1csc(n1)CC(NC(=O)C1CC1C)C(=O)N1CCCC(N1)C(=O)OCC(C)(C)C2 (centres undefined)?
Answer: viability, T/C (compound 0.000949 µM): 29.7% [middle of 8 runs]; viability, T/C (compound 0.003 µM): 22.6% [middle of 8 runs]; viability, T/C (compound 0.00949 µM): 19.6% [middle of 8 runs]; viability, T/C (compound 0.03 µM): 20.2% [middle of 8 runs]; viability, T/C (compound 0.0949 µM): 23% [middle of 8 runs]; viability, T/C (compound 0.3 µM): 21.7% [middle of 8 runs]; IC50 (compound alone, run of 05/20/2024): < 0.949 nM
